Results taken from ChEMBL document CHEMBL1201862, “PubChem BioAssay data set” (2004).
Calls of active or inactive are those of the source.

Experiments:
[1] = molecular target: T1, High affinity choline transporter 1 (Homo sapiens, UniProt Q9GZV3); experiment: human choline transporter blockers, potency – cell-based, 5-point CRC, membrane potential dye, dose response (AID 504840); format: functional
T1 sequence (Q9GZV3 whole entry): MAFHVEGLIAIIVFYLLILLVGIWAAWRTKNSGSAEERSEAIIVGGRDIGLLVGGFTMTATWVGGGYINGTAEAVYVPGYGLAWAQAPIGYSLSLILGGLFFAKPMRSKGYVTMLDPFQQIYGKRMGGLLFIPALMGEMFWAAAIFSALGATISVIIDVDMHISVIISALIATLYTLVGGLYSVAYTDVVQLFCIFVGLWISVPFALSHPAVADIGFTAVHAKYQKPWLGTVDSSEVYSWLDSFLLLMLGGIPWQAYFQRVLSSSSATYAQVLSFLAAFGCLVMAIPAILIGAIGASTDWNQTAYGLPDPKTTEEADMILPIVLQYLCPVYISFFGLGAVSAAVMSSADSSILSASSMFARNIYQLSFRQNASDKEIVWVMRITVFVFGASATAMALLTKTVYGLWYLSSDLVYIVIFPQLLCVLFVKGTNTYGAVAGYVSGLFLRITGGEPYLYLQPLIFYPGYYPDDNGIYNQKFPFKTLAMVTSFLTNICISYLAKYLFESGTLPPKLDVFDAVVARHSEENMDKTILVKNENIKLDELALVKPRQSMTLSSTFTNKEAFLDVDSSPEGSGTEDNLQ

BJ [2] = experiment: BJ-TERT fibroblast viability loss – cell-based, RAS-independent, luminescence, dose response (AID 1933); format: functional; conditions: Homo sapiens
[3] = DRD fibroblast viability loss – cell-based, non-viral oncogenic, luminescence, dose response (AID 1934); format: functional; conditions: Homo sapiens
BJ [4] = experiment: cells; format: functional, cell-based; conditions: Homo sapiens
BJ [5] = experiment: BJ-TERT-LT-ST fibroblast viability loss – cell-based, RAS-independent, luminescence, dose response (AID 1935); format: functional; conditions: Homo sapiens;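 also: BJ fibroblasts immortalized with TERT plus LT and ST oncogenes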
[6] = molecular target: Glyceraldehyde-3-phosphate dehydrogenase (Homo sapiens, UniProt P04406)
Sequence of Glyceraldehyde-3-phosphate dehydrogenase (P04406 whole entry): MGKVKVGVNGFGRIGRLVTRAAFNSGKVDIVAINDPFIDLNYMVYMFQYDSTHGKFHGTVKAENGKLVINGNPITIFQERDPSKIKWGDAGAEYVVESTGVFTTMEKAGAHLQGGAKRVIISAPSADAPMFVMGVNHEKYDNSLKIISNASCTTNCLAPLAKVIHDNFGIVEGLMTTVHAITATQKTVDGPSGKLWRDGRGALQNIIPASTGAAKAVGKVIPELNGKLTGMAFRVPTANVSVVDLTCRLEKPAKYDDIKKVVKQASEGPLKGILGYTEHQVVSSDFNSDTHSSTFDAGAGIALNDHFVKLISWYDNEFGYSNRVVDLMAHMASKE

[7] = molecular target: T2, Rac GTPase-activating protein 1 (Homo sapiens, UniProt Q9H0H5); experiment: blockers of MgcRacGAP-driven Rac1 GTP hydrolysis – biochemical, ADP Hunter fluorescence, primary and confirmatory, confirmation (AID 624330); format: functional
T2 sequence (Q9H0H5 whole entry): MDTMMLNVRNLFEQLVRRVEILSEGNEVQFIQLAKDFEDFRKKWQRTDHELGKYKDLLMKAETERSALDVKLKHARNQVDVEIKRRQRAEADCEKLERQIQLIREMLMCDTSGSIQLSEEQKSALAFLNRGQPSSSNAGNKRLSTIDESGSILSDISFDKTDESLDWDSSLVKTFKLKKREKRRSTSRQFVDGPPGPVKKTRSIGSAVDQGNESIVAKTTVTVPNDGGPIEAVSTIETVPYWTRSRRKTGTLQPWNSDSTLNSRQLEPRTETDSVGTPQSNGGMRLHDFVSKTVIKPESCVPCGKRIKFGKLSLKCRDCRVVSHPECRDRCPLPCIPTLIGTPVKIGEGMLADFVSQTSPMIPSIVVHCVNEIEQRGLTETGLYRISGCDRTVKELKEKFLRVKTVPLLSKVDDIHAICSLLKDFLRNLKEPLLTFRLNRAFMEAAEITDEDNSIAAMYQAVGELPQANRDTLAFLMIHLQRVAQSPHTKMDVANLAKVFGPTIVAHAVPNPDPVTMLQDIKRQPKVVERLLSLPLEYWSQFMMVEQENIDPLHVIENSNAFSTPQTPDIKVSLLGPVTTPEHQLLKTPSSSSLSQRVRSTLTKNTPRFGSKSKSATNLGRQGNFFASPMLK

[8] = Luminescence Cell-Based Dose Retest to Confirm Inhibitors of Cancer Stem Cells. [Related pubchem assays (depositor defined):AID2717, AID2721]; format: functional; conditions: Homo sapiens
[9] = molecular target: T3, Short transient receptor potential channel 4 (Mus musculus, UniProt Q9QUQ5); experiment: block of DAMGO-driven TRPC4 calcium entry – cell-based, HEK293 TRPC4/mu-opioid, Fluo-4 calcium, dose response (AID 434942); format: functional;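 also: potency of inhibitors blocking the TRPC4 calcium response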
T3 sequence (Q9QUQ5 whole entry): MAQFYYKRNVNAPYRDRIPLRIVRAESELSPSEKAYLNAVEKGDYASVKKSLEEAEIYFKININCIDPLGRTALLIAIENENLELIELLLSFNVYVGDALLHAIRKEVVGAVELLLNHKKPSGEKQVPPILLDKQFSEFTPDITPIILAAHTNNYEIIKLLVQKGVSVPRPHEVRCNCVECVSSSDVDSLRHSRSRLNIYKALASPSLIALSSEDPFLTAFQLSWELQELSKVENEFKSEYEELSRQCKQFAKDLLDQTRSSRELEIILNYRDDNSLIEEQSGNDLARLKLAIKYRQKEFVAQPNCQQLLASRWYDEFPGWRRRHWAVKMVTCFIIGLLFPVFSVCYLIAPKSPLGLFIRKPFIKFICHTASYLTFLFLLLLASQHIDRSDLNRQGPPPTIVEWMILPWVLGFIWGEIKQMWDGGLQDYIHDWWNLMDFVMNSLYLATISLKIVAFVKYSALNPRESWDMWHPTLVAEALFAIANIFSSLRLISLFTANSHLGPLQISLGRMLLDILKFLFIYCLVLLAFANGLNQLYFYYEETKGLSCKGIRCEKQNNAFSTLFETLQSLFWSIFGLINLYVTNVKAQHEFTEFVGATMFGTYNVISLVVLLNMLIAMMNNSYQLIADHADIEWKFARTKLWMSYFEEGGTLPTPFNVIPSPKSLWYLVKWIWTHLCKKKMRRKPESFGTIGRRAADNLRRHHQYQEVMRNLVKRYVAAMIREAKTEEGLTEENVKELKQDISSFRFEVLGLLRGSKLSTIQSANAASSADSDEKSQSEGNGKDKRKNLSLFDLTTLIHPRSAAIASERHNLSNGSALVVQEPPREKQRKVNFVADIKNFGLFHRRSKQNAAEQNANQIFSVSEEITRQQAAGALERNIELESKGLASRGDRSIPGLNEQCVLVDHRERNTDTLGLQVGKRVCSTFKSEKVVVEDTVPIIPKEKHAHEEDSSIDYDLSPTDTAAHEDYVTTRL

[10] = general mammalian cell viability loss – inhibitor set, cherry-pick, set 2, cytotoxicity control for miR-122 modulator project, dose response (AID 720697); format: functional, cell-based
[11] = molecular target: T4, Corticotropin-releasing factor receptor 2/Corticotropin-releasing factor-binding protein (Homo sapiens, UniProt P24387+Q13324); experiment: activators of CRF receptor 2 with binding protein – uHTS hits, confirmation (AID 602473); format: functional; conditions: read-out: EC50_Mean
T4 sequence (Q13324 whole entry): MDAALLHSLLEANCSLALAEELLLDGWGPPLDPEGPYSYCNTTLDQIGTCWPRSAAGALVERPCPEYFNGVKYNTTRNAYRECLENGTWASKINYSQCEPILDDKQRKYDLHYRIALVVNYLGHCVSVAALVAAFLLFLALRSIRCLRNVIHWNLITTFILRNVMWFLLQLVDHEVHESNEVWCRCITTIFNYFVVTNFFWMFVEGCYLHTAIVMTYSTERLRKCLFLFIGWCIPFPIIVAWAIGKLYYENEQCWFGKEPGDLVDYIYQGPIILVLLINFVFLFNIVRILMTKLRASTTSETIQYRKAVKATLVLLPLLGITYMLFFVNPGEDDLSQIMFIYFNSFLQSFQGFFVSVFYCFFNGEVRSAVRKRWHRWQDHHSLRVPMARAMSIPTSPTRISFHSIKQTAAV
T4 sequence (P24387 whole entry): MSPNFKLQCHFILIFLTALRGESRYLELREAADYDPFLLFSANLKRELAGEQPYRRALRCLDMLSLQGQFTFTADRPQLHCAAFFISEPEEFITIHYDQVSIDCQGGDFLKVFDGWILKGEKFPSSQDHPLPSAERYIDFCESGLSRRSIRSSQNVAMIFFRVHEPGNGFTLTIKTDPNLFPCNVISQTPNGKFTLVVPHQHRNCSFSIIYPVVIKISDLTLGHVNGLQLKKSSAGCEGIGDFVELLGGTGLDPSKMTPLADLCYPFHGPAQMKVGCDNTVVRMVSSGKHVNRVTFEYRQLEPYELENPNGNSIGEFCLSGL

[12] = molecular target: T4, Corticotropin-releasing factor receptor 2/Corticotropin-releasing factor-binding protein; experiment: Dose Response confirmation of uHTS hits for small molecule antagonists of the CRF-binding protein and CRF-R2 receptor complex.; format: functional; conditions: read-out: IC50_Mean
[13] = molecular target: Heat shock protein HSP 90-alpha (Homo sapiens, UniProt P07900); format: functional, organism-based

## COc1cc2ccccc2cc1C(=O)Nc1ccc(S(=O)(=O)Nc2cc(C)on2)cc1
[1]
  IC50: 13.8 µM (active)

## N#CC1=C2SCC(O)(c3ccccc3)N2C(=O)CC1c1ccccc1 (configuration not stated)
BJ [2]
  EC50: 4.26 µM (active)
[3]
  EC50: 3.01 µM (active)
BJ [4]
  EC50: 51.4 µM (active)
BJ [5]
  EC50: 3.28 µM (active)

## CCOC(=O)c1ccc(NC(=O)C(=O)NCc2ccco2)cc1
BJ [2]
  EC50: > 150 µM (not active)
[3]
  EC50: > 150 µM (not active)
BJ [4]
  EC50: > 150 µM (not active)
BJ [5]
  EC50: > 150 µM (not active)

## O=C1C(Cl)=C(N2CCN(c3ccccc3)CC2)C(=O)N1c1ccnc(Cl)c1
[6]
  IC50: > 50 µM (inconclusive)

## COc1cccc(CNc2ccc(N3CCC(C)CC3)cc2)c1OC
[7]
  IC50: 7.86 µM (active)
[1]
  IC50: 13.2 µM (active)

## O=C(CN1CCCC1)Nc1ccc(Cl)cc1C(=O)c1ccccc1
[8]
  AC50: 16.1 µM (active)
[9]
  EC50: 1.5 µM (active)

## Cc1cccc(NC(=O)Nc2ccc3c(c2)C(=O)N(C)[C@H]2CC[C@H](CC(=O)O)O[C@H]2CO3)c1
[10]
  AC50: 10.6 µM (active)

## COC(=O)C[C@@H]1CC[C@H]2[C@@H](COc3ccc(NC(=O)c4ccc(C(F)(F)F)cc4)cc3C(=O)N2C)O1
[10]
  AC50: 10 µM (active)

## CCc1nnc(NC(=O)CSc2nnnn2-c2cccc(C(C)=O)c2)s1
[11]
  EC50: > 53 µM (inactive)
[12]
  IC50: > 47.1 µM (inactive)

## COc1ccccc1/C=C/C(=O)N1CCOCC1
[11]
  EC50: > 53 µM (inactive)
[12]
  IC50: > 47.1 µM (inactive)

## CCc1cc([N+](=O)[O-])cc(CC)c1N
[1]
  IC50: 13.8 µM (active)

## Cc1ccc(C(=O)C(SC(C)(C)C)n2cncn2)cc1 (configuration not stated)
[13]
  AC50: 3.99 µM (active)
